According to patent US20060135415A1, “Immunomodulation and effect on cell processes relating to serotonin family receptors and the blood-brain barrier” (priority 2002, published 2006):
Entries after “also recorded” stand apart in the source; their conditions may differ.

How the values were obtained:
[1] = system: ConA stimulated human lymphocytes; experiment: Human mitogenic (ConA) stimulation, 3H-thymidine incorporation; assay type: cell-based; conditions: for activation / proliferative response: 5 μg/ml ConA, harvest 72 hours, drug titration (FIGS. 7A, 8A, 9A, 17, 33)
Method: Blood from healthy volunteers was drawn using venipuncture, using Vacutainer collection sets and heparinized collection vials. The blood was diluted 1:1 using HBSS to a total volume of 30 ml in 50 ml conical tubes (Fisher Scientific, Co., Pittsburgh, Pa.). […] Cells from the buffy coats were collected and the residual Histopaque was washed away using repeated centrifugations in HBSS. After washes, cells were resuspended at 5 million cells per ml in RPMI, supplemented with 2% FBS. To remove adherent cells, the suspension was plated onto a 6 well flat-bottom plate (Corning Costar), 3 ml/well, and incubated for 2 hours at 37° C., 5% CO2. Non-adherent cells were harvested after this incubation, were counted and resuspended in RPMI supplemented with 10% human serum (Sigma).
All drugs were pre-plated before the cell suspension was added onto each well of a 96-well round-bottom plate. All experimental conditions were assayed in at least triplicate. Cells suspended in RPMI supplemented with 10% human serum were plated at 100,000 cells per well to a final volume of 200 μl. […] Control samples received no ConA stimulation. The plates were incubated at 37° C. and 5% CO2.

[2] = system: allogeneic stimulation of human lymphocytes; experiment: Human mixed lymphocyte reaction (allogeneic stimulation), 3H-thymidine; assay type: cell-based; conditions: allogeneic stimulation, harvest 120 hours, drug titration (FIGS. 7B, 8B, 9B)
Text: Blood from two healthy, non-related, donors was taken as described above. Peripheral blood mononuclear cells were isolated as described previously elsewhere. The adherent cells were separated from the suspension cells as described previously for both donors. Suspension cells from both donors (donors A and B) were used as responders. The remaining adherent cells from each of the donors were used as stimulators against a different donor (suspension A against adherent B and adherent A against suspension B). The stimulator cells were irradiated at 35 Gy. Drugs were pre-plated onto 96 well, U-bottom plates in triplicate. 200,000 “stimulator” cells in RPMI supplemented with 10% human serum were then plated in each well. 200,000 “responder” cells in the same medium were then plated over stimulators to a final volume of 200 μl/well. Background controls received either no stimulator cells, or no responder cells. The plates were incubated at 37° C. and 5% CO2. 1 μCi of tritiated thymidine was added to each well after 4.5 days, and the plates were harvested 12 hours later.

[3] = system: allogeneic CTL response against P815 cells; experiment: Murine allograft model, CTL killing of P815 target cells by splenocytes; assay type: in vivo, C57BL/6J mice; conditions: Cyclosporin A 100 μg ip daily from day −2; for allograft (CTL) response: 5HT antagonists 200 μg/injection tail vein days 6 and 8, sacrifice day 14 (FIGS. 13, 14); for allogeneic killing response: serotonin-specific compounds 300 μg/injection tail vein days 5 and 7, sacrifice day 14 (FIGS. 18A, 18B)
Method: The in vivo validation screen used was an art-recognized murine allogeneic rejection model as described in Zhan et al., 2000. For this assay, a complete MHC miss-match system was employed wherein 5×10^6 P815 cells ([H-2^d] DBA/2 mastocytoma) were injected into the peritoneal cavity of C57BL/6J (H-2^b) mice on day 0 of the experiment. These mice typically generate a strong cytotoxic T lymphocyte (CTL) reaction in response to P815 cells. Following the initial P815 cell inoculation, the mice were allowed to develop a CTL response (this usually takes about 10-14 days). […] Mice were then sacrificed on day 14 of the experiment as indicated in the figures; and the allogeneic CTL response was assayed as described previously (Tretiakova et al., 2000, Nature Biotechnology 18:984-988). The primary spleen cells from the treated and untreated animals were used in the direct CTL readout. Freshly obtained primary spleen cells were incubated with the [^3H] labeled target cells (P815 cells) at 100:1, 50:1, 25:1, and 12.5:1 ratios for 3.5 hours at 37° C. and harvested using a PHD harvester. The percentage of specific killing was determined using the formula % kill=(S−E)/S, where S is the amount of the DNA retained by the target cells in the absence of the effector cells and E is the amount of retained DNA in the presence of the effector cells (expressed in counts per minute; cpm).
This is an art-recognized model of allograft […] rejection based on that described by […]. (2000). In this model, there is a complete MHC mismatch between the P815 cells (H-2^d) and the C57BL6 mouse (H-2^b), thus ensuring an aggressive immune response. The data disclosed in FIG. 13, depicts results of experiments that included 6 treatment groups, each group consisting of three mice. Each mouse received 5×10^6 P815 cells injected into the peritoneal cavity on day 0 of the study. The first group was an untreated control group, which was used to establish the baseline response of the mice against the allogeneic stimulus. These mice, without any further treatments, were sacrificed, as were the other treatment groups, on day 14 of the study and their splenocytes assayed for target-specific killing of the P815 cells.
The average kill observed for the untreated group was about 45% at an effector to target ratio of 100:1. The second group was treated with risperidone, a 5HT-2 antagonist, administered via a tail vein bolus injection (200 μg/injection) on days 6 and 8 of the study. The timing of the drug administration was selected to ensure that the T cells were fully activated prior to the drug treatment. The third group was treated with propanolol, a 5HT-1 antagonist. All of the 5HT receptor antagonist-treated groups were treated as described for the risperidone-treated group. The fourth group was treated chronically with CyclosporinA. The Cyclosporin A was administered ip at a dosage of 100 μg/injection starting two days prior to the onset of the study, i.e., at day −2, and the injections were continued on a daily basis for the duration of the study.
Finally, studies conducted in vivo using the CD8-dependent allograft rejection model, in which P815 cells (a rapidly growing cell line taken from a mastocytoma in a DBA mouse), were expanded and used to create a robust rejection response in a C57BL6 mouse. In this study the mice received 5×10^6 P815 cells injected into their peritoneal cavity on day 0 of the study. The first group was an untreated control group (naïve animals), used to acquire the baseline response of the mice against the allogeneic stimulus. The positive controls were treated with the allogeneic cells without any further treatments. These animals were used to assess the induced allogeneic response against the P815 cells. […]

RPMI-8226 cells = experiment: Cytospin histochemistry (H&E, bis-benzamide) for chromatin; assay type: cell-based, human; conditions: 9 hour treatments, 50 μM SB compounds, 2 μM camptothecin (FIGS. 28, 29)
Method: 2.0×10^5 RPMI-8226 cells were cultured, in 6-well culture plates, in the presence of the indicated drug concentrations, in a total of 5 mL RPMI-1640 supplemented with 10% FBS. Each well was harvested in its entirety and divided into two identical samples for cytospins.
1.0×10^5 RPMI-8226 cells from each treatment group were loaded into Cyto-funnels and centrifuged at 500 rpm for 4 minutes with medium acceleration. Slides were then fixed through graded methanol in PBS (100%, 5 minutes; 80%, 5 minutes; 50%, 5 minutes), washed for 5 minutes in PBS and stored in PBS at 4° C. until stained.
Cytospun slides were stained with Hematoxylin and Eosin, followed by the nuclear stain, bis-benzamide, rinsed and mounted according to standard staining protocols. Slides were visualized under both brightfield and fluorescent light to generate matched images of the same slide field (see, e.g., FIGS. 28 and 29).

[4] = system: RPMI 8226 multiple myeloma cells; experiment: RPMI 8226 cell viability and proliferation (trypan blue, MTT, 3H-thymidine); assay type: cell-based, human; conditions: 3H-thymidine uptake, drug titration (FIGS. 19-25, 31, 32)
Method: The human plasmacytoma (multiple myeloma) cell line, RPMI 8226 (American Type Culture Collection, Manassas, Va.), was cultured in RPMI 1640 supplemented with 10 mM HEPES, 1 mM sodium pyruvate, 4.5 g/L glucose, 1.5 g/L bicarbonate and 20% FBS (non-heat inactivated).
Cell proliferation was assayed by three methods—Trypan Blue Exclusion was used to quantify the number of viable cells in culture; 3-(4,5-dimethylthiazol-2-yl)-2,5-diphenyl tetrazolium bromide (MTT) reduction was used to assay mitochondrial activity (and thus cell viability); and ^3H-Thymidine uptake was employed to assay for active DNA synthesis.
Three separate indicators of cell proliferation were employed to study the effects of 5-HT receptor modulating agents on the human multiple myeloma cell line, RPMI 8226. Cells were plated at 4 separate densities and were treated with LY53587 (an antagonist of the 5-HT2A/2B/2C receptors) at a range of concentrations. The exclusion of trypan blue dye was used as an indicator of cell viability. Cell numbers were then plotted against the concentration of drug added.
MTT reduction was also used as an indicator of cell viability (more specifically, mitochondrial activity). Absorbance values at OD570 were then plotted against drug concentration. Finally, DNA synthesis was assayed, through the measurement of ^3H-thymidine uptake, and counts per minute (CPMs) were plotted against drug concentration.
Culturing and administration of drugs and ^3H-thymidine were performed as described elsewhere herein.

SMILES: N[C@@H](Cc1ccc(Cl)cc1)C(=O)O (racemic) [PCPA, para-chlorophenylalanine]
- mitogenic response ([1]; human PBLs, 1 μg/ml ConA, PCPA titration (FIG. 3)): inhibits the mitogenic response in a dose-dependent manner

SMILES: N[C@@H](Cc1c[nH]c2ccc(O)cc12)C(=O)O [5-hydroxytryptophan]
- proliferation response ([1]; 25 μM, in the absence of PCPA (FIG. 3)): significantly enhanced the proliferation response
- reversal of PCPA inhibition of mitogenic response ([1]; added to PCPA-inhibited cells (FIG. 3)): this inhibition can be reversed

SMILES: OC(CN1CCN(c2cccc(Cl)c2)CC1)C(c1ccccc1)c1ccccc1 (stereo not drawn) [BRL 15572]
- activation / proliferative response [2]: had no effect upon the proliferative response
- activation / proliferative response [1]: had no effect upon the proliferative response

SMILES: CC(O)C(C)OC(=O)[C@@H]1C[C@@H]2c3cccc4c3c(cn4C(C)C)C[C@H]2N(C)C1 (stereo partly drawn) [LY 53857]
- activation / proliferative response [2]: inhibit the activation response at pharmacologically relevant concentrations
- activation / proliferative response [1]: inhibit the activation response at pharmacologically relevant concentrations

SMILES: Cn1ccc2cc3c(cc21)CCN3C(=O)Nc1cccnc1 [SB 206553]
- activation / proliferative response [2]: inhibit the activation response at pharmacologically relevant concentrations
- activation / proliferative response [1]: inhibit the activation response at pharmacologically relevant concentrations
- in vitro activation / proliferation of (helper) T cells [1]: immediate cessation of proliferation
- allograft (CTL) response [3]: Two of the treated mice had the allogeneic response completely suppressed; also recorded: Two of the three treated mice inhibited the allograft response to a degree equivalent to that observed in the Cyclosporin A-treated animals
- allograft (CTL) response ([3]; listed as SB206553): inhibited the allograft response to varying degrees
- allogeneic killing response [3]: striking

SMILES: Cc1cc2c(cc1Cl)N(C(=O)Nc1ccc(Oc3cccnc3C)nc1)CC2 [SB 242084]
- activation / proliferative response [2]: inhibit the activation response at pharmacologically relevant concentrations
- inhibitory profile on mitogenic stimulation ([1]; 1 μg/ml ConA, harvest 72 h, drug added at time=0 or 48 hours (FIG. 12)): retained the complete inhibitory profile
- activation / proliferative response [1]: inhibit the activation response at pharmacologically relevant concentrations
- chromatin condensation / fragmentation (apoptosis) (RPMI-8226 cells): induced programmed cell death comparable to that induced by the topoisomerase I inhibitor, camptothecin
- chromatin condensation / fragmentation (apoptosis) (RPMI-8226 cells; listed as SB242084): condensed and fragmented chromatin
- growth / proliferation of RPMI 8226 cells [4]: strong inhibition of growth

SMILES: COc1ccccc1N1CCN(CCN(C(=O)C2CCCCC2)c2ccccn2)CC1 [WAY 100635]
- in vitro activation / proliferation of (helper) T cells [1]: significantly inhibits the activation response

SMILES: CC[C@@]1(O)C(=O)OCc2c1cc1n(c2=O)Cc2cc3ccccc3nc2-1 [camptothecin]
- chromatin condensation / fragmentation (apoptosis) (RPMI-8226 cells): Extensive chromatin condensation and nuclear fragmentation

SMILES: CSc1ccc2c(c1)C(N1CCN(C)CC1)Cc1ccccc1S2 (stereo not drawn) [methiothepin]
- activation / proliferative response [2]: inhibit the activation response at pharmacologically relevant concentrations
- activation / proliferative response [1]: inhibit the activation response at pharmacologically relevant concentrations
- growth / proliferation of RPMI 8226 cells [4]: strong inhibition of growth

SMILES: CC[C@@H](CO)NC(=O)[C@@H]1C=C2c3cccc4c3c(cn4C)C[C@H]2N(C)C1 [methysergide]
- allograft (CTL) response [3]: inhibited the allograft response to varying degrees
- allogeneic killing response [3]: complete inhibition of the induced killing response; also recorded: abrogated the allogeneic killing response; also recorded: inhibition profile was striking

SMILES: NNCCc1ccccc1 [phenelzine]
- drug concentration giving significant inhibition ([1]; 0.1 and 1 μg/ml ConA (FIGS. 5A, 5B)): 10 to 100 µM
- drug concentration at which full inhibition occurs ([1]; higher ConA stimulation (10 μg/ml)): 100 to 400 µM
- proliferative response ([1]; highest ConA dose 10 μg/ml, harvest 72 hours (FIG. 5C)): no inhibition was observed
- stimulation of ConA-activated human PBLs ([1]; reagents at 400 μM, time course (FIG. 4)): completely shut down the stimulation
